Source: ChEMBL document CHEMBL6092168, “Identification of novel indolinone derivatives as CTSC inhibitors to treat inflammatory bowel disease by modulating inflammatory factors” (Eur J Med Chem, 2024)
The source made the active and inactive calls. The calls are words filed in the database; no cut-off is given here.

Experiments:
RAW264.7 [1] = test: Anti-inflammatory activity in mouse RAW264.7 cells assessed as inhibition of LPS-induced NO production preincubated for 1 hr followed by LPS addition and measured after 24 hrs by Griess reagent based assay; assay type: functional, cell-based
Dipeptidyl peptidase 1 = Dipeptidyl peptidase 1 (Homo sapiens, UniProt P53634); test: Inhibition of human recombinant Cathepsin C using Gly-Phe-AFC as substrate preincubated for 3 hrs followed by substrate addition and measured after 1 hr by fluorescence based multifunctional microplate reader analysis
Chain of Dipeptidyl peptidase 1 (P53634 25-134 limits assumed): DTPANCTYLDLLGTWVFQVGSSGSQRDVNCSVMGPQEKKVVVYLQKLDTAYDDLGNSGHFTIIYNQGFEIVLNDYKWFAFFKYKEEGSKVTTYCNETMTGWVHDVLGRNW
Chain of Dipeptidyl peptidase 1 (P53634 231-394 limits assumed): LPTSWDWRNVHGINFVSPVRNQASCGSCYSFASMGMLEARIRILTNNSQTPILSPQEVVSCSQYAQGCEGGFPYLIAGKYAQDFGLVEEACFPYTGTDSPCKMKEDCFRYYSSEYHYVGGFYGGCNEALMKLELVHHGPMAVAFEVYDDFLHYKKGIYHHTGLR
Chain of Dipeptidyl peptidase 1 (P53634 395-463 limits assumed): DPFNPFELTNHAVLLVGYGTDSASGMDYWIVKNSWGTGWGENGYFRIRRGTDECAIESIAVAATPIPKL

RAW264.7 [2] = test: Anti-inflammatory activity in mouse RAW264.7 cells assessed as inhibition of LPS-induced IL-1beta production at 5 uM preincubated for 1 hr followed by LPS addition and measured after 24 hrs by ELISA relative to control; assay type: functional
RAW264.7 [3] = test: Anti-inflammatory activity in mouse RAW264.7 cells assessed as inhibition of LPS-induced TNF-alpha production at 5 uM preincubated for 1 hr followed by LPS addition and measured after 24 hrs by ELISA relative to control; assay type: functional

| SMILES | IC50 (RAW264.7 [1]) [nM] | IC50 (Dipeptidyl peptidase 1) [nM] | Activity (RAW264.7 [2]; time 25.0 hrs) | Activity (RAW264.7 [3]; time 25.0 hrs) | Activity (RAW264.7 [2]; time 25 hrs) [%] | Activity (RAW264.7 [3]; time 25 hrs) [%] |
| --- | --- | --- | --- | --- | --- | --- |
| O=C1Nc2c(cccc2-c2ccc(F)cc2)/C1=C/c1ccnc2ccccc12 | 37200 | > 1000 | inactive | inactive |  |  |
| CCc1ccc(-c2cccc3c2NC(=O)/C3=C\c2ccnc3ccccc23)cc1 | > 50000 | > 1000 | inactive | inactive |  |  |
| CN(C)c1ccc(-c2cccc3c2NC(=O)/C3=C\c2ccnc3ccccc23)cc1 | 15100 | > 1000 | inactive | inactive |  |  |
| CC(C)c1ccc(NC(=O)c2cccc(-c3ccc(CN4CCOCC4)cc3)c2)cc1 | > 50000 | > 1000 | inactive | inactive |  |  |
| Nc1ccc(NC(=O)c2cccc(-c3ccc(CN4CCOCC4)cc3)c2)cc1 | > 50000 | > 1000 | inactive | inactive |  |  |
| CC(=O)c1ccc(NC(=O)c2cccc(-c3ccc(CN4CCOCC4)cc3)c2)cc1 | > 50000 | > 1000 | inactive | inactive |  |  |
| O=C(Nc1cncc2ccccc12)c1cccc(-c2ccc(CN3CCOCC3)cc2)n1 | > 50000 | 251 | inactive | inactive |  |  |
| CC(=O)Nc1ccc(-c2cccc3c2NC(=O)/C3=C\c2ccnc3ccccc23)cc1 | 16200 | 303 | inactive | inactive |  |  |
| CN1CCN(Cc2ccc(-c3cccc4c3NC(=O)/C4=C\c3ccnc4ccccc34)cc2)CC1 | 3200 | 161 |  |  | 80.4 | 70.4 |
| O=C(Nc1ccc2ccccc2c1)c1cccc(-c2ccc(CN3CCOCC3)cc2)c1 | 7600 | 223 |  |  | 68.8 | 63.2 |
| O=C(Nc1cccc(C(F)(F)F)c1)c1cccc(-c2ccc(CN3CCOCC3)cc2)c1 | > 50000 | > 1000 | inactive | inactive |  |  |
| O=C1Nc2c(cccc2-c2ccc(CN3CCOCC3)cc2)/C1=C/c1ccnc2ccccc12 | 4400 | 106 |  |  | 88.3 | 72.2 |
| Nc1c(C(=O)Nc2cncc3ccccc23)cccc1-c1ccc(CN2CCOCC2)cc1 | 5300 | 222 |  |  | 62.3 | 60.8 |
| CC(=O)Nc1cccc(NC(=O)c2cccc(-c3ccc(CN4CCOCC4)cc3)c2)c1 | > 50000 | > 1000 | inactive | inactive |  |  |
| O=C(Nc1cncc2ccccc12)c1cccc(-c2ccc(CN3CCOCC3)cc2)c1 | 9700 | 250 |  |  | 65.6 | 62.5 |
| CNC(=O)c1cccc(NC(=O)c2cccc(-c3ccc(CN4CCOCC4)cc3)c2)c1 | > 50000 | > 1000 | inactive | inactive |  |  |
| CC(=O)c1cccc(NC(=O)c2cccc(-c3ccc(CN4CCOCC4)cc3)c2)c1 | 20200 | 292 |  |  | 47.4 | 50.3 |
| O=C(Nc1ccccc1F)c1cccc(-c2ccc(CN3CCOCC3)cc2)c1 | > 50000 | > 1000 | inactive | inactive |  |  |
| O=C(Nc1ccc(Cl)cc1)c1cccc(-c2ccc(CN3CCOCC3)cc2)c1 | > 50000 | 575 | inactive | inactive |  |  |
| Nc1ccc(-c2cccc3c2NC(=O)/C3=C\c2ccnc3ccccc23)cc1 | 8100 | 493 | inactive | inactive |  |  |
| NC(=O)c1cccc(NC(=O)c2cccc(-c3ccc(CN4CCOCC4)cc3)c2)c1 | 16100 | 360 |  |  | 35.6 | 41.9 |
| Cc1cccc(NC(=O)c2cccc(-c3ccc(CN4CCOCC4)cc3)c2)c1 | > 50000 | > 1000 | inactive | inactive |  |  |
| O=C(Nc1cccc2ccccc12)c1cccc(-c2ccc(CN3CCOCC3)cc2)c1 | 8200 | 263 |  |  | 63.2 | 54.3 |
| O=C(Nc1ccc(O)cc1)c1cccc(-c2ccc(CN3CCOCC3)cc2)c1 | 15700 | 237 |  |  | 38.6 | 40.8 |
| Nc1c(C(=O)Nc2cccc3ccccc23)cccc1-c1ccc(CN2CCOCC2)cc1 | 8400 | 272 |  |  | 67.1 | 40.1 |
| O=C(Nc1cccc(O)c1)c1cccc(-c2ccc(CN3CCOCC3)cc2)c1 | 9700 | 265 |  |  | 55.7 | 62.2 |

| SMILES | IC50 (RAW264.7 [1]) [nM] | IC50 (Dipeptidyl peptidase 1) [nM] | Activity (RAW264.7 [2]; time 25.0 hrs) | Activity (RAW264.7 [3]; time 25.0 hrs) | Activity (RAW264.7 [2]; time 25 hrs) [%] | Activity (RAW264.7 [3]; time 25 hrs) [%] |
| --- | --- | --- | --- | --- | --- | --- |
| Cc1ccc(NC(=O)c2cccc(-c3ccc(CN4CCOCC4)cc3)c2)cc1 | > 50000 | > 1000 | inactive | inactive |  |  |
| CNC(=O)c1ccc(NC(=O)c2cccc(-c3ccc(CN4CCOCC4)cc3)c2)cc1 | > 50000 | > 1000 | inactive | inactive |  |  |
| Nc1n[nH]c2ccc(-c3cccc4c3NC(=O)/C4=C\c3ccnc4ccccc34)cc12 | 15600 | 398 |  |  | 59.3 | 37.8 |
| O=C(Nc1ccnc2ccccc12)c1cccc(-c2ccc(CN3CCOCC3)cc2)n1 | 2900 | 273 |  |  | 70.2 | 62.2 |
| O=C(Nc1ccc(F)cc1)c1cccc(-c2ccc(CN3CCOCC3)cc2)c1 | > 50000 | > 1000 | inactive | inactive |  |  |
| O=C1Nc2c(cccc2-c2ccc3[nH]ncc3c2)/C1=C/c1ccnc2ccccc12 | 9800 | 190 |  |  | 62 | 41.3 |
| O=C(Nc1ccc(C(F)(F)F)cc1)c1cccc(-c2ccc(CN3CCOCC3)cc2)c1 | > 50000 | > 1000 | inactive | inactive |  |  |
| O=C(Nc1cccc(Cl)c1)c1cccc(-c2ccc(CN3CCOCC3)cc2)c1 | > 50000 | 377 |  |  | 40.2 | 35.5 |
| O=C(Nc1cccc(F)c1)c1cccc(-c2ccc(CN3CCOCC3)cc2)c1 | > 50000 | > 1000 | inactive | inactive |  |  |
| CN(C)Cc1ccc(-c2cccc3c2NC(=O)/C3=C\c2ccnc3ccccc23)cc1 | 14500 | 660 | inactive | inactive |  |  |
| O=C(Nc1ccccc1)c1cccc(-c2ccc(CN3CCOCC3)cc2)c1 | > 50000 | > 1000 | inactive | inactive |  |  |
| N#Cc1ccc(-c2cccc3c2NC(=O)/C3=C\c2ccnc3ccccc23)cc1 | > 50000 | > 1000 | inactive | inactive |  |  |
| NC(=O)c1ccc(-c2cccc3c2NC(=O)/C3=C\c2ccnc3ccccc23)cc1 | 16200 | 290 | inactive | inactive |  |  |
| O=C(Nc1ccnc2ccccc12)c1cccc(-c2ccc(CN3CCOCC3)cc2)c1 | 9400 | 240 |  |  | 75.7 | 70.6 |
| O=C1Nc2c(cccc2-c2ccc(C(=O)N3CCOCC3)cc2)/C1=C/c1ccnc2ccccc12 | 8600 | 182 |  |  | 65.2 | 58.1 |
| COc1ccc(NC(=O)c2cccc(-c3ccc(CN4CCOCC4)cc3)c2)cc1 | > 50000 | 731 | inactive | inactive |  |  |
| O=C(Nc1ccc2ccccc2c1)c1cccc(-c2ccc(CN3CCOCC3)cc2)n1 | 2900 | 302 |  |  | 69.3 | 57.4 |
| O=C(Nc1nccc2ccccc12)c1cccc(-c2ccc(CN3CCOCC3)cc2)c1 | 8700 | 262 |  |  | 70.6 | 67.7 |
| CC(=O)Nc1ccc(NC(=O)c2cccc(-c3ccc(CN4CCOCC4)cc3)c2)cc1 | > 50000 | 770 | inactive | inactive |  |  |
| Nc1c(C(=O)Nc2ccc3ccccc3c2)cccc1-c1ccc(CN2CCOCC2)cc1 | 6100 | 310 |  |  | 64.2 | 69.7 |
| NC(=O)c1ccc(NC(=O)c2cccc(-c3ccc(CN4CCOCC4)cc3)c2)cc1 | > 50000 | > 1000 | inactive | inactive |  |  |
| Nc1c(C(=O)Nc2nccc3ccccc23)cccc1-c1ccc(CN2CCOCC2)cc1 | 8300 | 324 |  |  | 44.2 | 33.3 |
| O=C1Nc2c(cccc2-c2ccc(OC(F)(F)F)cc2)/C1=C/c1ccnc2ccccc12 | > 50000 | > 1000 | inactive | inactive |  |  |
| O=C1Nc2c(cccc2-c2ccc(C(=O)NC3CCOCC3)cc2)/C1=C/c1ccnc2ccccc12 | 6800 |  |  |  | 88.1 | 71.9 |
| O=C1Nc2c(cccc2-c2ccc3cc[nH]c3c2)/C1=C/c1ccnc2ccccc12 | 9800 |  |  |  | 60.2 | 39.4 |
| NCc1ccc(-c2cccc3c2NC(=O)/C3=C\c2ccnc3ccccc23)cc1 | 14500 |  | inactive | inactive |  |  |
